From ChEMBL document CHEMBL1201862, “PubChem BioAssay data set” (2004)
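48-hour exposure; five concentrations; linearly interpolated endpoints. GI50: concentration for 50% inhibition of growth.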 Activity calls are given as the source filed them. Cut-off read from the data, not from the text of the source: active = GI50 up to about 1.1 µM and inactive = higher.

Columns and labels:
Test in all cases: NCI-60 cell line screen, 48 h
[1] = tested on: SN12C
[2] = tested on: COLO 205
[3] = tested on: PC-3
[4] = tested on: A549
[5] = tested on: CCRF-CEM
[6] = tested on: HOP-92
[7] = tested on: DU-145
[8] = tested on: RXF 393
[9] = tested on: Malme-3M
[10] = tested on: IGROV-1
[11] = tested on: NCI-H23
[12] = tested on: A498
[13] = tested on: HCT-116
[14] = tested on: MDA-MB-231
[15] = tested on: SF-268
[16] = tested on: Hs-578T
[17] = tested on: HCT-15
[18] = tested on: SW-620
[19] = tested on: SF-295
[20] = tested on: SK-MEL-2
[21] = tested on: OVCAR-4
[22] = tested on: T47D
[23] = tested on: NCI/ADR-RES
[24] = tested on: UO-31
[25] = tested on: UACC-257
[26] = tested on: BT-549
[27] = tested on: SNB-75
[28] = tested on: CAKI-1
[29] = tested on: HOP-62
[30] = tested on: KM12
[31] = tested on: SR
[32] = tested on: MOLT-4
[33] = tested on: HT-29
[34] = tested on: UACC-62
[35] = tested on: HL-60
[36] = tested on: HCC 2998
[37] = tested on: SNB-19
[38] = tested on: 786-0
[39] = tested on: RPMI-8226
[40] = tested on: ACHN
[41] = tested on: SK-MEL-5
[42] = tested on: MCF7
[43] = tested on: M14
[44] = tested on: MDA-N
[45] = tested on: U-251
[46] = tested on: OVCAR-5
[47] = tested on: SF-539
[48] = tested on: SK-MEL-28
[49] = tested on: NCI-H522
[50] = tested on: EKVX
[51] = tested on: MDA-MB-435
[52] = tested on: K562
[53] = tested on: LOX IMVI
[54] = tested on: NCI-H226
[55] = tested on: OVCAR-8
[56] = tested on: OVCAR-3
[57] = tested on: NCI-H460
[58] = tested on: SK-OV-3
[59] = tested on: TK-10

Measured: GI50

Cc1cc(=O)oc2c(C)c(O)ccc12
inactive: [1] > 100 µM | [2] > 100 µM | [3] > 100 µM | [4] > 100 µM | [5] > 100 µM | [6] > 100 µM | [7] > 100 µM | [8] > 100 µM | [9] > 100 µM | [10] > 100 µM | [11] > 100 µM | [12] 78.9 µM | [13] > 100 µM | [14] > 100 µM | [15] > 100 µM | [16] > 100 µM | [18] > 100 µM | [19] > 100 µM | [20] > 100 µM | [21] > 100 µM | [22] > 100 µM | [23] > 100 µM | [24] 22.4 µM | [25] > 100 µM | [26] 35.4 µM | [27] > 100 µM | [28] 55.6 µM | [29] > 100 µM | [30] > 100 µM | [31] > 100 µM | [32] 89.1 µM | [33] > 100 µM | [34] 99.3 µM | [35] 48.6 µM | [36] > 100 µM | [37] > 100 µM | [38] > 100 µM | [39] 62.1 µM | [40] > 100 µM | [41] > 100 µM | [42] > 100 µM | [43] > 100 µM | [44] > 100 µM | [45] > 100 µM | [46] > 100 µM | [47] > 100 µM | [48] > 100 µM | [49] > 100 µM | [50] > 100 µM | [51] > 100 µM | [52] > 100 µM | [53] > 100 µM | [54] > 100 µM | [55] > 100 µM | [56] > 100 µM | [57] > 100 µM
> 100 µM: [17]

CCOC(=O)c1sc2nc(SC)nc3c2c1NCN3c1ccc(F)c(F)c1
inactive: [1] 30.5 µM | [2] > 100 µM | [3] 16.4 µM | [4] 8.04 µM | [5] 16.7 µM | [6] 18.5 µM | [7] 8.43 µM | [8] 6.43 µM | [9] 7.59 µM | [10] 43.1 µM | [11] 14.6 µM | [12] 12.6 µM | [13] 9.02 µM | [14] 13 µM | [15] 9.84 µM | [58] 19.2 µM | [16] 4.28 µM | [18] 10 µM | [19] 24.2 µM | [20] > 71 µM | [21] 4.76 µM | [22] 29.4 µM | [23] 9.98 µM | [24] 22.1 µM | [59] 22.6 µM | [25] > 45.8 µM | [26] 6.79 µM | [28] > 52.5 µM | [29] 12.1 µM | [30] 10.7 µM | [31] > 21.5 µM | [32] > 55.2 µM | [33] 29.8 µM | [34] > 52.4 µM | [35] > 100 µM | [36] > 36.1 µM | [37] 34.8 µM | [38] 4.82 µM | [39] 9.93 µM | [40] 6.97 µM | [41] > 71.9 µM | [42] 36 µM | [43] 31.4 µM | [44] 18.3 µM | [45] 9.27 µM | [46] > 100 µM | [47] 5.2 µM | [48] 23.7 µM | [49] 21.1 µM | [50] 32.4 µM | [51] 6.81 µM | [52] > 100 µM | [53] 6.59 µM | [54] 29.9 µM | [55] 5.27 µM | [56] 5.57 µM | [57] 8.63 µM
12.4 µM: [17]
